The target in assay [1] is T1, Human Recombinant Glucocorticoid Receptor (Homo sapiens, UniProt P04150).
T1 construct: This GR was a full-length steroid hormone receptor; host or cells: recombinant baculovirus-infected insect cells
T1 sequence (P04150 1-777): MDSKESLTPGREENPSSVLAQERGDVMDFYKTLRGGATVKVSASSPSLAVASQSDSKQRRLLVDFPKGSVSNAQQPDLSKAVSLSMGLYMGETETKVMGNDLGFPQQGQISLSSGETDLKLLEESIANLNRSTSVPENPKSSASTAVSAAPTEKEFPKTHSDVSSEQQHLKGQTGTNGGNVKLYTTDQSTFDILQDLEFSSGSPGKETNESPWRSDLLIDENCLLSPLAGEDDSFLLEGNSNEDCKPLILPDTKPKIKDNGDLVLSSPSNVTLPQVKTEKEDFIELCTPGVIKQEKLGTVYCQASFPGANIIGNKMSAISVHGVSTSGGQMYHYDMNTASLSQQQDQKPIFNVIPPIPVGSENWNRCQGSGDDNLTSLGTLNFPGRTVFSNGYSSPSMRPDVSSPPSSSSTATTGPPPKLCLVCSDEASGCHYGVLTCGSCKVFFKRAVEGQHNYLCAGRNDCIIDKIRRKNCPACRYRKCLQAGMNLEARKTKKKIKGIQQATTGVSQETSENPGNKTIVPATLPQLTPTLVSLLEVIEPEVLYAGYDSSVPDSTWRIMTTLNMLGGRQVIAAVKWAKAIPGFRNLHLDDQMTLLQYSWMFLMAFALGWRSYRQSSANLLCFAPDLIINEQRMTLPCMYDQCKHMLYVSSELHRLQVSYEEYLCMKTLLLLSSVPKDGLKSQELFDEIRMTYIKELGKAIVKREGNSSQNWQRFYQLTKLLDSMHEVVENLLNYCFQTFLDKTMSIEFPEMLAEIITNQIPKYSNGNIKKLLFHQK
Kind of assay: Glucocorticoid receptor binding displacement assay with 3H-dexamethasone. The conditions noted are these: displacement of 2.5 nM 3H-dexamethasone, 2.5 hrs at 4° C.; Ki from IC50 by Cheng-Prusoff; read-out: GR Binding Ki. The procedure: Binding protocol: Compounds were tested in a binding displacement assay using human recombinant glucocorticoid receptor with ^3H-dexamethasone as the ligand. The source of the receptor was recombinant baculovirus-infected insect cells. This GR was a full-length steroid hormone receptor likely to be associated with heat-shock and other endogenous proteins.
For the IC50 determinations, test compounds were tested at 6 concentrations in duplicate. Test compounds were diluted from 10 mM stock in 100% DMSO. The tested solutions were prepared at 2× final assay concentration in 2% DMSO/assay buffer.
All reagents and the assay plate were kept on ice during the addition of reagents. The reagents were added to wells of a v-bottomed polypropylene plate in the following order: 25 μl of 10 nM 3H-dexamethasone solution, 50 μl of TB/NSB/compound solution and 25 μl of 2 nM GR solution. After the additions, the incubation mixture was mixed and incubated for 2.5 hrs at 4° C.
Alter 2.5 hrs incubation, unbound counts were removed with dextran coated charcoal (DCC) as follows: 15 μl of DCC solution (10% DCC in assay buffer) was added to all wells and mixed (total volume 115 μl). The plate was centrifuged at 4000 rpm for 10 minutes at 4° C. 75 μl of the supernatants was carefully pipetted into an optiplate. 150 μl of scintillation cocktail were added (Microscint-40, Perkin Elmer). The plate was vigorously shaken for approx. 10 minutes and counted on Topcount.
The IC50 values were converted to Ki (the inhibition constant) using the Cheng-Prusoff equation.
Reagents: Assay buffer: 10 mM potassium phosphate buffer pH 7.6 containing 5 mM DTT, 10 mM sodium molybdate, 100 μM EDTA and 0.1% BSA.

For assay [2], the target named is T2, glucocorticoid receptors (endogenous) in SW1353/MMTV-5 cells (Homo sapiens, UniProt P04150).
T2 construct: contains endogenous glucocorticoid receptors; endogenous in cells; host or cells: SW1353/MMTV-5 (human chondrosarcoma, stably transfected with pMAMneo-Luc reporter)
T2 sequence (P04150 1-777): T1 sequence (P04150 1-777)
The assay is described as follows: GR functional assay using SW1353/MMTV-5 cells (MMTV-GRE luciferase reporter). The class given is cell-based. How it is done:
SW1353/MMTV-5 is an adherent human chondrosarcoma cell line that contains endogenous glucocorticoid receptors. It was transacted with a plasmid (pMAMneo-Luc) encoding firefly luciferase located behind a glucocorticoid-responsive element (GRE) derived from a viral promoter (long terminal repeat of mouse mammary tumor virus). A stable cell line SW1353/MMTV-5 was selected with geneticin, which was required to maintain this plasmid.
SW1353/MMTV-5 cells were distributed in 96-well plates and incubated in medium (without geneticin) for 24 hrs.
In general terms: Reporter assays use an easily measured gene product as a stand-in for the process of interest.

As usually defined, the Ki is the dissociation constant of the complex between target and ligand, obtained from inhibition or displacement.

Molecules are shown by their SMILES.

With `O=c1[nH]c(=O)c(Cc2ccc(Cl)cc2Cl)c([C@H]2CC[C@H](c3ccccc3)CC2)[nH]1` [Compound 3f], the results for the Ki in assay [1] and in assay [2] were 5 to 10 nM and less than 50 nM, respectively.
The matching figures for `COCCn1c(=O)[nH]c([C@H]2CC[C@H](c3ccccc3)CC2)c(Cc2cccc(C(F)(F)F)c2)c1=O` [Compound 13g, (E)-3-(2-Methoxy-ethyl)-6-(4-phenyl-cyclohexyl)-5-(3-trifluoromethyl-benzyl)-1H-pyrimidine-2,4-dione]: more than 10 nM and more than 100 nM.
The matching figures for `Cc1cc(Cc2c(=O)[nH]c(=O)[nH]c2[C@H]2CC[C@H](c3ccccc3)CC2)ccn1` [Compound 3n]: more than 10 nM and more than 100 nM.
The matching figures for `CN(C)c1cccc(Cc2c(=O)[nH]c(=O)[nH]c2[C@H]2CC[C@H](c3ccccc3)CC2)n1` [Compound 3v]: 5 to 10 nM and less than 50 nM.
Turning to `Cc1cccc(Cc2c(=O)[nH]c(=O)[nH]c2[C@H]2CC[C@H](c3ccccc3)CC2)c1` [Compound 3h, (E)-5-(3-Methylbenzyl)-6-(4-phenylcyclohexyl)-1H-pyrimidine-2,4-dione], the Ki was less than 5 nM in assay [1] and less than 50 nM in assay [2].
On the same counts, the results for `O=c1[nH]c(=O)c(Cc2ccc(F)c(F)c2)c([C@H]2CC[C@H](c3ccccc3)CC2)[nH]1` [Compound 3w] are more than 10 nM and 50 to 100 nM.
The matching figures for `Nc1cccc(Cc2c(=O)[nH]c(=O)[nH]c2[C@H]2CC[C@H](c3ccccc3)CC2)n1` [Compound 3cc]: more than 10 nM and more than 100 nM.
The matching figures for `O=c1[nH]c(=O)c(Cc2cccc(F)c2F)c([C@H]2CC[C@H](c3ccccc3)CC2)[nH]1` [Compound 3z]: less than 5 nM and less than 50 nM.
On to `O=c1[nH]c(=O)c(Cc2cc(C(F)(F)F)ccn2)c([C@H]2CC[C@H](c3ccccc3)CC2)[nH]1` [Compound 3r], for which the Ki in assay [1] was more than 10 nM; in assay [2] it was 50 to 100 nM.
The matching figures for `O=c1[nH]c(=O)c(Cc2cccc(C(F)(F)F)n2)c([C@H]2CC[C@H](c3ccccc3)CC2)[nH]1` [Compound 3l]: 5 to 10 nM and less than 50 nM.
On the same counts, the results for `Cc1cccc(Cc2c(=O)n(C)c(=O)[nH]c2[C@H]2CC[C@H](c3ccccc3)CC2)c1` [Compound 13a, (E)-3-Methyl-5-(3-methylbenzyl)-6-(4-phenylcyclohexyl)-1H-pyrimidine-2,4-dione] are 5 to 10 nM and less than 50 nM.
The matching figures for `CCc1ccccc1Cc1c(=O)[nH]c(=O)[nH]c1[C@H]1CC[C@H](c2ccccc2)CC1` [Compound 3s]: 5 to 10 nM and 50 to 100 nM.
Regarding `O=c1[nH]c(=O)c(Cc2ccccc2)c([C@H]2CC[C@H](c3ccccc3)CC2)[nH]1` [Compound 3a, (E)-5-Benzyl-6-(4-phenylcyclohexyl)-1H-pyrimidine-2,4-dione], the inhibition constant (Ki) is less than 5 nM in assay [1] and less than 50 nM in assay [2].
The matching figures for `COc1ccccc1Cc1c(=O)[nH]c(=O)[nH]c1[C@H]1CC[C@H](c2ccccc2)CC1` [Compound 3u]: less than 5 nM and 50 to 100 nM.
On the same counts, the results for `Cn1c(=O)[nH]c([C@H]2CC[C@H](c3ccccc3)CC2)c(Cc2cccc(C(F)(F)F)c2)c1=O` [Compound 13d, (E)-3-Methyl-6-(4-phenyl-cyclohexyl)-5-(3-trifluoromethyl-benzyl)-1H-pyrimidine-2,4-dione] are 5 to 10 nM and more than 100 nM.
On to `O=c1[nH]c(=O)c(Cc2ccccn2)c([C@H]2CC[C@H](c3ccccc3)CC2)[nH]1` [Compound 3p], for which the values for the Ki in assay [1] and in assay [2] were more than 10 nM and more than 100 nM, respectively.
The matching figures for `O=c1[nH]c(=O)c(Cc2ncccc2Cl)c([C@H]2CC[C@H](c3ccccc3)CC2)[nH]1` [Compound 3m]: more than 10 nM and more than 100 nM.
On the same counts, the results for `O=c1[nH]c(=O)c(Cc2ccc(F)cc2Cl)c([C@H]2CC[C@H](c3ccccc3)CC2)[nH]1` [Compound 3x] are more than 10 nM and less than 50 nM.
On the same counts, the results for `O=c1[nH]c(=O)c(Cc2ncccn2)c([C@H]2CC[C@H](c3ccccc3)CC2)[nH]1` [Compound 3k] are more than 10 nM and more than 100 nM.
With `Cc1csc(Cc2c(=O)[nH]c(=O)[nH]c2[C@H]2CC[C@H](c3ccccc3)CC2)n1` [Compound 3t], the Ki in assay [1] is more than 10 nM; in assay [2] it was more than 100 nM.
On the same counts, the results for `O=c1[nH]c(=O)c(Cc2nccs2)c([C@H]2CC[C@H](c3ccccc3)CC2)[nH]1` [Compound 3o] are more than 10 nM and more than 100 nM.

For the origin of these results see US8906917B2, “Pyrimidine cyclohexyl glucocorticoid receptor modulators” (Corcept Therapeutics, Inc., priority 2011, dated 2014).
